Data reported in patent US20230265151A1, “GIP/GLP1 CO-AGONIST COMPOUNDS” (priority 2020, published 2023).
Where two headings read alike, the source gives them in different places.

Tests used:
Type in all cases: cell-based
hGCGR = molecular target: T1, hGCGR (Homo sapiens, UniProt P47871); experiment: Functional cAMP formation (HTRF) in HEK-293 clonal cells expressing hGCGR, 0.1% bovine casein, without or with 1.0% human serum albumin
T1 construct: expressed in transfected cells
Procedure, shortened: (§1)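 Cells were stimulated with peptide for 30 min at 37° C, then lysed in buffer carrying cAMP-d2 and anti-cAMP Eu3+-cryptate for a competitive HTRF read after at least 60 min at room temperature. The 665/620 nm ratio was converted to nM cAMP against a standard curve.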

hGIPR = molecular target: T2, hGIPR (Homo sapiens, UniProt P48546); experiment: Functional cAMP formation (HTRF) in HEK-293 clonal cells expressing hGIPR, 0.1% bovine casein, without or with 1.0% human serum albumin; conditions: for EC50: geometric mean
T2 construct: expressed in transfected cells
T2 sequence (P48546 22-466): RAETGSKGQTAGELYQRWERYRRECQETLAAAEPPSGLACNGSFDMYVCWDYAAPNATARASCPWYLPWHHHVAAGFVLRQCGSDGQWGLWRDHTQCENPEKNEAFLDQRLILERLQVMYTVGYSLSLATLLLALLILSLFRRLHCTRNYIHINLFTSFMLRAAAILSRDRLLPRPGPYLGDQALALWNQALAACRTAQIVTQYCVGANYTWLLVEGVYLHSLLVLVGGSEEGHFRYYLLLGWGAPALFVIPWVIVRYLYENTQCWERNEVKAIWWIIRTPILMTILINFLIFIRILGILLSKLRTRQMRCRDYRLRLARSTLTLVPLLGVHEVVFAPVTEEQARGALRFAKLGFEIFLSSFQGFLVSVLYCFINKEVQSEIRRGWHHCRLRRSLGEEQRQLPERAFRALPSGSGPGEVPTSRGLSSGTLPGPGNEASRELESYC
Procedure, shortened: as §1

hGLP-1R = hGLP-1R (Homo sapiens, UniProt P43220); experiment: Functional cAMP formation (HTRF) in HEK-293 clonal cells expressing hGLP-1R, 0.1% bovine casein, without or with 1.0% human serum albumin; parameters: expressed in transfected cells; conditions: for EC50: cAMP
Sequence of hGLP-1R (P43220 24-463): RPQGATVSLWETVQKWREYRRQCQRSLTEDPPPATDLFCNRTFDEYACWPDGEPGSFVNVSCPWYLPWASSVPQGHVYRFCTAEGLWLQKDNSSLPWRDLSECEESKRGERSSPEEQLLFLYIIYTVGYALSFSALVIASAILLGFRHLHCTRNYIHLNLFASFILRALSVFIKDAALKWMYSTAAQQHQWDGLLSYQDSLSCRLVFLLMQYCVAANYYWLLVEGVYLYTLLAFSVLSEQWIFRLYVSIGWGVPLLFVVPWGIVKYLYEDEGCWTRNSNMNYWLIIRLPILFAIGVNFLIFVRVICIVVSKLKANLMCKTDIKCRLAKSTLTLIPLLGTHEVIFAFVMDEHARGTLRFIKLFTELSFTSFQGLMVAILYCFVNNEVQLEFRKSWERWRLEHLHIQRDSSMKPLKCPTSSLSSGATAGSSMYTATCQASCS
Procedure, shortened: as §1

[1] = hGCGR EC50, nM (SEM, n), cAMP, 37° C., 0.1% bovine casein (no human serum albumin), geometric mean
[2] = HEK293, read-out: hGIPR Emax, % ± SEM, cAMP, 37° C., 0.1% bovine casein, percent of maximal response to GIP(1-42)NH2, arithmetic mean
[3] = hGIPR EC50, nM (SEM, n), cAMP, 37° C., 0.1% bovine casein (no human serum albumin)
[4] = hGLP-1R EC50, nM (SEM, n), 37° C., 0.1% bovine casein (no human serum albumin), geometric mean

T1 sequence (P47871 26-477): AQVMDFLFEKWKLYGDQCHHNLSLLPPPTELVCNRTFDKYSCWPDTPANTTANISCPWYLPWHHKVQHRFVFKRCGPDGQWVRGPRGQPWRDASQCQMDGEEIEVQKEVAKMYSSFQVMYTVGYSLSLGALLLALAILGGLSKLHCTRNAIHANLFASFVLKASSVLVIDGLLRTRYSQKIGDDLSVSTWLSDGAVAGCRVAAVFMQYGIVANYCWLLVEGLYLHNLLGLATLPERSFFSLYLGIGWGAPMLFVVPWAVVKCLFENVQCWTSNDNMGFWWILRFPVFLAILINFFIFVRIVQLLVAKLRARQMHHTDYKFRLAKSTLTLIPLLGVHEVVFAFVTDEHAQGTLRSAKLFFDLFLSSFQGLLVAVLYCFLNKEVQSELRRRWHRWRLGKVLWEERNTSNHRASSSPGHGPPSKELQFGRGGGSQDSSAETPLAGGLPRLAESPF

CC[C@H](C)[C@H](NC(=O)[C@H](CC(C)C)NC(=O)[C@](C)(Cc1ccc(O)cc1)NC(=O)[C@H](CCCCNC(=O)COCCOCCNC(=O)COCCOCCNC(=O)CC[C@H](NC(=O)CCCCCCCCCCCCC(=O)O)C(=O)O)NC(=O)[C@@H](NC(=O)[C@H](Cc1ccccc1)NC(=O)[C@H](Cc1ccncc1)NC(=O)C(C)(C)NC(=O)[C@H](CCC(N)=O)NC(=O)[C@H](C)NC(=O)[C@H](CCC(N)=O)NC(=O)[C@H](CCCN)NC(=O)[C@H](CC(=O)O)NC(=O)[C@H](CC(C)C)NC(=O)[C@](C)(CC(C)C)NC(=O)[C@@H](NC(=O)C(C)(C)NC(=O)[C@H](Cc1ccncc1)NC(=O)[C@H](CC(=O)O)NC(=O)[C@H](CO)NC(=O)[C@@H](NC(=O)[C@](C)(Cc1ccccc1F)NC(=O)[C@@H](NC(=O)CNC(=O)[C@H](CCC(=O)O)NC(=O)C(C)(C)NC(=O)[C@@H](N)Cc1ccc(O)cc1)[C@@H](C)O)[C@@H](C)O)[C@@H](C)CC)[C@@H](C)CC)C(=O)N[C@@H](CCCCNC(=O)COCCOCCNC(=O)COCCOCCNC(=O)CC[C@H](NC(=O)CCCCCCCCCCCCC(=O)O)C(=O)O)C(=O)NCC(=O)NCC(=O)N1CCC[C@H]1C(=O)N[C@@H](CO)C(=O)N[C@@H](CO)C(=O)NCC(=O)N[C@@H](C)C(=O)N1CCC[C@H]1C(=O)N1CCC[C@H]1C(=O)N1CCC[C@H]1C(=O)N[C@@H](CO)C(N)=O [Example 444] was tested, and the EC50 (hGCGR; cAMP, 37° C., 0.1% bovine casein (no human serum albumin), geometric mean, read-out: hGCGR EC50, nM (SEM, n)) was over 9950 nM, the EC50 (hGCGR; cAMP, 37° C., 0.1% bovine casein and 1.0% human serum albumin, geometric mean (SEM, n), read-out: hGCGR EC50, nM (SEM, n)) was over 9950 nM and the Emax (hGIPR; HEK293, cAMP, 37° C., 0.1% bovine casein and 1.0% human serum albumin, percent of maximal response to GIP(1-42)NH2, read-out: hGIPR Emax, % ± SEM) was 83.6%. For the same compound, the Emax (hGIPR; HEK293, cAMP, 37° C., 0.1% bovine casein, percent of maximal response to GIP(1-42)NH2, arithmetic mean, read-out: hGIPR Emax, % ± SEM) was 93.6%, the EC50 (hGIPR; cAMP, 37° C., 0.1% bovine casein (no human serum albumin), read-out: hGIPR EC50, nM (SEM, n)) was 0.0157 nM and the Emax (hGLP-1R; HEK293, cAMP, 37° C., 0.1% bovine casein and 1.0% human serum albumin, percent of maximal response to GLP-1(7-36)NH2, read-out: hGLP-1R Emax, % ± SEM) was 98.8%. For the same compound, the EC50 (hGLP-1R; 37° C., 0.1% bovine casein (no human serum albumin), geometric mean, read-out: hGLP-1R EC50, nM (SEM, n)) was 0.289 nM and the EC50 (hGLP-1R; 37° C., 0.1% bovine casein and 1.0% human serum albumin, geometric mean (SEM, n), read-out: hGLP-1R EC50, nM (SEM, n)) was 7.51 nM.
For CC[C@H](C)[C@H](NC(=O)[C@H](CCCN)NC(=O)[C@H](CC(=O)O)NC(=O)[C@H](CC(C)C)NC(=O)[C@](C)(CC(C)C)NC(=O)[C@@H](NC(=O)C(C)(C)NC(=O)[C@H](Cc1ccc(O)cc1)NC(=O)[C@H](CC(=O)O)NC(=O)[C@H](CO)NC(=O)[C@@H](NC(=O)[C@](C)(Cc1ccccc1F)NC(=O)[C@@H](NC(=O)CNC(=O)[C@H](CCC(=O)O)NC(=O)C(C)(C)NC(=O)[C@@H](N)Cc1ccc(O)cc1)[C@@H](C)O)[C@@H](C)O)[C@@H](C)CC)C(=O)N[C@@H](C)C(=O)N[C@@H](CCC(N)=O)C(=O)NC(C)(C)C(=O)N[C@@H](CCC(=O)O)C(=O)N[C@@H](Cc1ccccc1)C(=O)N[C@H](C(=O)N[C@@H](CCCCNC(=O)COCCOCCNC(=O)COCCOCCNC(=O)COCCOCCNC(=O)CC[C@H](NC(=O)CCCCCCCCCOc1ccc(C(=O)O)cc1)C(=O)O)C(=O)N[C@@](C)(Cc1ccc(O)cc1)C(=O)N[C@@H](CC(C)C)C(=O)N[C@H](C(=O)N[C@@H](CCCCNC(=O)COCCOCCNC(=O)COCCOCCNC(=O)COCCOCCNC(=O)CC[C@H](NC(=O)CCCCCCCCCOc1ccc(C(=O)O)cc1)C(=O)O)C(=O)NCC(=O)NCC(=O)N1CCC[C@H]1C(=O)N[C@@H](CO)C(=O)N[C@@H](CO)C(=O)NCC(=O)N[C@@H](C)C(=O)N1CCC[C@H]1C(=O)N1CCC[C@H]1C(=O)N1CCC[C@H]1C(=O)N[C@@H](CO)C(N)=O)[C@@H](C)CC)[C@@H](C)CC [Example 346], the EC50 (hGCGR; [1]) was over 9950 nM, the EC50 (hGCGR; hGCGR EC50, nM (SEM, n), cAMP, 37° C., 0.1% bovine casein and 1.0% human serum albumin, geometric mean (SEM, n)) was over 9950 nM and the Emax (hGIPR; HEK293, read-out: hGIPR Emax, % ± SEM, cAMP, 37° C., 0.1% bovine casein and 1.0% human serum albumin, percent of maximal response to GIP(1-42)NH2) was 83.9%. For the same compound, the Emax (hGIPR; [2]) was 96.6%, the EC50 (hGIPR; [3]) was 0.0194 nM and the Emax (hGLP-1R; HEK293, read-out: hGLP-1R Emax, % ± SEM, cAMP, 37° C., 0.1% bovine casein and 1.0% human serum albumin, percent of maximal response to GLP-1(7-36)NH2) was 97.7%. The EC50 (hGLP-1R; [4]) was 0.329 nM.
In the case of CC[C@H](C)[C@H](NC(=O)[C@H](CCCN)NC(=O)[C@H](CC(=O)O)NC(=O)[C@H](CC(C)C)NC(=O)[C@](C)(CC(C)C)NC(=O)[C@@H](NC(=O)[C@](C)(CO)NC(=O)[C@H](Cc1ccc(O)cc1)NC(=O)[C@H](CC(=O)O)NC(=O)[C@H](CO)NC(=O)[C@@H](NC(=O)[C@](C)(Cc1ccccc1F)NC(=O)[C@@H](NC(=O)CNC(=O)[C@H](CCC(=O)O)NC(=O)C(C)(C)NC(=O)[C@@H](N)Cc1ccc(O)cc1)[C@@H](C)O)[C@@H](C)O)[C@@H](C)CC)C(=O)N[C@@H](C)C(=O)N[C@@H](CCC(N)=O)C(=O)NC(C)(C)C(=O)N[C@@H](CCC(=O)O)C(=O)N[C@@H](Cc1ccccc1)C(=O)N[C@H](C(=O)N[C@@H](CCCCNC(=O)COCCOCCNC(=O)COCCOCCNC(=O)CC[C@H](NC(=O)CCCCCCCCCOc1ccc(C(=O)O)cc1)C(=O)O)C(=O)N[C@@](C)(Cc1ccc(O)cc1)C(=O)N[C@@H](CC(C)C)C(=O)N[C@H](C(=O)N[C@@H](CCCCNC(=O)COCCOCCNC(=O)COCCOCCNC(=O)CC[C@H](NC(=O)CCCCCCCCCOc1ccc(C(=O)O)cc1)C(=O)O)C(=O)NCC(=O)NCC(=O)N1CCC[C@H]1C(=O)N[C@@H](CO)C(=O)N[C@@H](CO)C(=O)NCC(=O)N[C@@H](C)C(=O)N1CCC[C@H]1C(=O)N1CCC[C@H]1C(=O)N1CCC[C@H]1C(=O)N[C@@H](CO)C(N)=O)[C@@H](C)CC)[C@@H](C)CC [Example 307], the EC50 (hGCGR; hGCGR EC50, nM (SEM, n), 0.1% bovine casein and 1.0% human serum albumin, 37° C., geometric mean) is reported as over 9950 nM, the EC50 (hGCGR; [1]) is reported as over 9950 nM and the Emax (hGIPR; HEK293, read-out: hGIPR Emax, % ± SEM, 0.1% bovine casein and 1.0% human serum albumin, 37° C., percent of maximal response to GIP(1-42)NH2) is reported as 81.8%. It also gave an Emax (hGIPR; [2]) of 105%, an EC50 (hGIPR; hGIPR EC50, nM (SEM, n), 0.1% bovine casein and 1.0% human serum albumin, 37° C.) of 1.66 nM and an EC50 (hGIPR; [3]) of 0.0292 nM. It also gave an Emax (hGLP-1R; HEK293, read-out: hGLP-1R Emax, % ± SEM, 0.1% bovine casein and 1.0% human serum albumin, 37° C., percent of maximal response to GLP-1(7-36)NH2) of 109% and an EC50 (hGLP-1R; [4]) of 0.376 nM.
Compound CC[C@H](C)[C@H](NC(=O)[C@H](CC(C)C)NC(=O)[C@](C)(Cc1ccc(O)cc1)NC(=O)[C@@H](CCC(=O)O)NC(=O)[C@@H](NC(=O)[C@H](Cc1ccccc1)NC(=O)[C@H](Cc1ccncc1)NC(=O)C(C)(C)NC(=O)[C@H](CCC(N)=O)NC(=O)[C@H](C)NC(=O)[C@H](CCCCNC(=O)COCCOCCNC(=O)COCCOCCNC(=O)CC[C@H](NC(=O)CCCCCCCCCCCCC(=O)O)C(=O)O)NC(=O)[C@H](CCCN)NC(=O)[C@H](CC(=O)O)NC(=O)[C@H](CC(C)C)NC(=O)[C@](C)(CC(C)C)NC(=O)[C@@H](NC(=O)[C@H](CO)NC(=O)[C@H](Cc1ccncc1)NC(=O)[C@H](CC(=O)O)NC(=O)[C@H](CO)NC(=O)[C@@H](NC(=O)[C@](C)(Cc1ccccc1F)NC(=O)[C@@H](NC(=O)CNC(=O)[C@H](CCC(=O)O)NC(=O)C(C)(C)NC(=O)[C@@H](N)Cc1ccc(O)cc1)[C@@H](C)O)[C@@H](C)O)[C@@H](C)CC)[C@@H](C)CC)C(=O)N[C@@H](CCC(=O)O)C(=O)NCC(=O)NCC(=O)N[C@@H](CCCCNC(=O)COCCOCCNC(=O)COCCOCCNC(=O)CC[C@H](NC(=O)CCCCCCCCCCCCC(=O)O)C(=O)O)C(=O)N[C@@H](CO)C(=O)N[C@@H](CO)C(=O)NCC(=O)N[C@@H](C)C(=O)N1CCC[C@H]1C(=O)N1CCC[C@H]1C(=O)N1CCC[C@H]1C(=O)N[C@@H](CO)C(N)=O [Example 157] has an EC50 (hGCGR; 0.1% bovine casein and 1.0% human serum albumin, 37° C., geometric mean, read-out: hGCGR EC50, nM (SEM, n)) of over 9950 nM, an EC50 (hGCGR; cAMP, incubated at 37° C., 0.1% bovine casein (no human serum albumin), geometric mean, read-out: hGCGR EC50, nM (SEM, n)) of over 9950 nM and an EC50 (hGIPR; 0.1% bovine casein and 1.0% human serum albumin, 37° C., read-out: hGIPR EC50, nM (SEM, n)) of 0.718 nM. The Emax (hGIPR; HEK293, 0.1% bovine casein and 1.0% human serum albumin, 37° C., percent of maximal response to GIP(1-42)NH2, read-out: hGIPR Emax, % ± SEM) was 89.6 ± 3.39%, the Emax (hGIPR; HEK293, percent of maximal response to GIP(1-42)NH2, 37° C., 0.1% bovine casein, arithmetic mean, read-out: hGIPR Emax, % ± SEM) was 98.8 ± 1.33% and the EC50 (hGIPR; cAMP, incubated at 37° C., 0.1% bovine casein (no human serum albumin), read-out: hGIPR EC50, nM (SEM, n)) was 0.0286 nM. The Emax (hGLP-1R; HEK293, percent of maximal response to GLP-1(7-36)NH2, 37° C., 0.1% bovine casein, arithmetic mean, read-out: hGLP-1R Emax, % ± SEM) was 98.5 ± 4.73%.
